Like-named read-outs stand apart in the source and are kept apart here.
What was measured:
[1] = Pharmacokinetic evaluation, oral exposure in rats; assay type: in vivo; settings: male Sprague-Dawley rats, single oral dose 10 mg/kg via oral gavage, plasma
Description: Pharmacokinetic studies of select compounds were performed to assess the pharmacokinetic properties. Male Sprague-Dawley rats were administered a single oral dose of the test compound at 10 mg/kg (dose concentration: 2 mg/mL, dose volume: 5 ml/kg) via oral gavage. Blood samples were collected via jugular vein at pre-dose, post-dose 5 min, 15 min, 30 min, 1 h, 2 h, 4 h, 6 h, 8 h, 10 h and 24 h, and centrifuged (8000 rpm for 6 minutes at 2-8° C.). The resulting plasma fractions were analyzed by LC/MS/MS to determine the concentration of the test compound.

human Plasma Kallikrein [2] = molecular target: T1, human Plasma Kallikrein (Homo sapiens (Human), UniProt P03952); assay: Human whole blood kallikrein inhibition (ellagic acid-activated human plasma, Z-FR-2-AMC substrate); assay type: biochemical
T1 sequence (P03952 391-638 limits assumed): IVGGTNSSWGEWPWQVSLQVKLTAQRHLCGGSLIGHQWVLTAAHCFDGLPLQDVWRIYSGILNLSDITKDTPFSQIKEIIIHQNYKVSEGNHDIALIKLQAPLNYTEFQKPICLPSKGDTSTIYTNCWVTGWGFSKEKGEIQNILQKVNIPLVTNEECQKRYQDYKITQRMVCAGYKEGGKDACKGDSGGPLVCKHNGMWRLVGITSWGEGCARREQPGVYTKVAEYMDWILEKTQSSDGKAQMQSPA
T1 sequence (P03952 20-390 partner limits assumed): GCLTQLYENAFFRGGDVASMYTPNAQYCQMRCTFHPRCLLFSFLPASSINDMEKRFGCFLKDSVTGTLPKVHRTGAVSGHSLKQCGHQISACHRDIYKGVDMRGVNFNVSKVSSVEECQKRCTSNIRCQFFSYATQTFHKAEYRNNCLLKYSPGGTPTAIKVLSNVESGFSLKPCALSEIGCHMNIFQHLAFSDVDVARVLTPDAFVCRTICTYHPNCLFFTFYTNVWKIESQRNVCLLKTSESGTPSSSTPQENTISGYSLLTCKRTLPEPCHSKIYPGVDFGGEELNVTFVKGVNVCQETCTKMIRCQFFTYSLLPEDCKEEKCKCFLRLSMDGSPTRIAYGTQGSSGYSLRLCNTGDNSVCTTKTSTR
Description: The ability of the compounds disclosed herein to inhibit human plasma kallikrein activity was quantified according to the procedures below.
All dilutions were prepared in an assay buffer comprising 50 mM Tris-HCl pH 7.2, 150 mM NaCl, and 0.01% Triton X-100.
Human plasma was thawed on ice and centrifuged for 15 min at 4° C. to remove platelets. A 1 mM stock solution of ellagic acid was diluted to 8 μM and mixed with human plasma, after removing platelets, at a ratio of 1:0.8. The mixture of human plasma and ellagic acid was further diluted 32-fold in the assay buffer, to yield the final mixture for use in the inhibition assay.
A 22.5 μL volume of the final mixture of human plasma and ellagic acid was added to a 96-well microwell plate and the plate was incubated for 15 min at 37° C.
The test compound solution was prepared to provide final concentrations of 20 μM, 5 μM, 1.25 μM, 312.5 nM, 78.125 nM, 19.531 nM, 4.883 nM, 1.221 nM, 0.305 nM, and 0.076 nM. Each test compound concentration was tested in duplicates.
In addition to the inhibitor control and test wells, the 96 well assay plate included positive control wells which contain the mixture of human plasma and ellagic acid without test compounds, and background wells which contain neither the mixture of human plasma and ellagic acid nor the test compounds. The total volume of liquid in positive control and background wells was brought up to 35 μL using the assay buffer.
The assay plate containing test compounds mixed with human plasma and ellagic acid and appropriate controls was incubated at 37° C. for 5 min. A 10 mM stock solution of substrate Z-FR-2-AMC was diluted to 133.2 μM in the assay buffer, and 15 μL of the diluted substrate was added to each well, to yield a final substrate concentration of 40 μM in each well. The reagents were mixed by shaking the plate gently for 30 sec.
The enzyme reaction was quantified by immediate kinetic reading of the assay plate using excitation/emission wavelengths of 330 nm/440 nm respectively. Fluorescence intensity was recorded for 60 min, using a time interval of 43 sec.
The inhibition activity of the test compounds were evaluated using the IC50 values, calculated according to the dose-response curve of the test compounds, fitted using the “log(inhibitor)−response(variable slope)” equation in GraphPadPrism software (GraphPad Software, Inc.).
The percentage inhibition (EC50) was calculated using the following equation:
[formula] where, Mean(BG) is the average value of the fluorescence intensity of the background wells and Mean(PC) is the average value of the fluorescence intensity of the positive control wells.

human Plasma Kallikrein [3] = molecular target: T1, human Plasma Kallikrein; assay: In vitro enzyme inhibition of human plasma kallikrein (Pro-Phe-Arg-AMC cleavage); assay type: biochemical; settings: human plasma kallikrein, PFR-AMC substrate, 37° C.; read-out: hPK IC50
In short: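 Human plasma kallikrein preincubated 5 min at 37 °C with compound in 50 mM Tris-HCl pH 7.5, 150 mM NaCl, 0.01% Triton X-100. Reaction started with Pro-Phe-Arg-AMC, fluorescence read every 43 s for 1 h at 37 °C. IC50 from highest mean velocity over 20 reads (~15 min).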

[4] = human plasma activated with ellagic acid, Z-FR-2-AMC 40 μM, 37° C., read-out: HWB EC50

With “2-amino-N-((6-amino-2,4-dimethylpyridin-3-yl)methyl)-1-((3-chloroquinolin-6-yl)methyl)-1H-imidazole-4-carboxamide [Example 24]” the AUC [1] was “B (>100 ng · h/mL to ≤1000 ng · h/mL)”, the EC50 (human Plasma Kallikrein [2]; [4]) was less than 100 nM and the IC50 (human Plasma Kallikrein [3]) was less than 100 nM.

In the case of “4-amino-N-((6-amino-2,4-dimethylpyridin-3-yl)methyl)-1-((3-chloroquinolin-6-yl)methyl)-1H-pyrazole-3-carboxamide [Example 25]”, the AUC [1] is reported as “C (>1000 ng · h/mL to ≤10,000 ng · h/mL)”, the EC50 (human Plasma Kallikrein [2]; [4]) is reported as less than 100 nM and the IC50 (human Plasma Kallikrein [3]) is reported as less than 100 nM.

With Cc1cc(N)nc(C)c1CNC(=O)c1ccn(Cc2ccc3ncc(Cl)cc3c2)n1 [Example 1, N-((6-amino-2,4-dimethylpyridin-3-yl)methyl)-1-((3-chloroquinolin-6-yl)methyl)-1H-pyrazole-3-carboxamide] the AUC ([1]; rat, read-out: AUC) was 100 to 1000 ng·h/mL and the EC50 (human Plasma Kallikrein [2]; [4]) was less than 100 nM.

For Cc1cc(N)nc(C)c1CNC(=O)c1cnn(Cc2ccc3ncc(Cl)cc3c2)c1 [Example 2, N-((6-amino-2,4-dimethylpyridin-3-yl)methyl)-1-((3-chloroquinolin-6-yl)methyl)-1H-pyrazole-4-carboxamide], the AUC ([1]; rat, read-out: AUC) was 100 to 1000 ng·h/mL, the EC50 (human Plasma Kallikrein [2]; [4]) was less than 100 nM and the IC50 (human Plasma Kallikrein [3]) was less than 100 nM.

With Cc1cc(N)nc(C)c1CNC(=O)c1cn(Cc2ccc3ncc(Cl)cc3c2)cn1 [Example 3, N-((6-amino-2,4-dimethylpyridin-3-yl)methyl)-1-((3-chloroquinolin-6-yl)methyl)-1H-imidazole-4-carboxamide] the AUC ([1]; rat, read-out: AUC) was 100 to 1000 ng·h/mL, the EC50 (human Plasma Kallikrein [2]; [4]) was less than 100 nM and the IC50 (human Plasma Kallikrein [3]) was less than 100 nM.

With Cc1cc(N)nc(C)c1CNC(=O)c1ncn(Cc2ccc3ncc(Cl)cc3c2)n1 [Example 4, N-((6-amino-2,4-dimethylpyridin-3-yl)methyl)-1-((3-chloroquinolin-6-yl)methyl)-1H-1,2,4-triazole-3-carboxamide] the AUC ([1]; rat, read-out: AUC) was less than 100 ng·h/mL, the EC50 (human Plasma Kallikrein [2]; [4]) was less than 100 nM and the IC50 (human Plasma Kallikrein [3]) was less than 100 nM.

In the case of Cc1cc(N)nc(C)c1CNC(=O)c1cnc(Cc2ccc3ncc(Cl)cc3c2)[nH]1 [Example 5, N-((6-amino-2,4-dimethylpyridin-3-yl)methyl)-2-((3-chloroquinolin-6-yl)methyl)-1H-imidazole-5-carboxamide], the AUC [1] is reported as “BLQ”, the EC50 (human Plasma Kallikrein [2]; [4]) is reported as less than 100 nM and the IC50 (human Plasma Kallikrein [3]) is reported as less than 100 nM.

Work on Cc1cc(N)nc(C)c1CNC(=O)c1nc(Cc2ccc3ncc(Cl)cc3c2)no1 [Example 6, N-((6-amino-2,4-dimethylpyridin-3-yl)methyl)-3-((3-chloroquinolin-6-yl)methyl)-1,2,4-oxadiazole-5-carboxamide] yielded an AUC ([1]; rat, read-out: AUC) of 100 to 1000 ng·h/mL, an EC50 (human Plasma Kallikrein [2]; [4]) of less than 100 nM and an IC50 (human Plasma Kallikrein [3]) of less than 100 nM.

Molecule Cc1cc(N)nc(C)c1CNC(=O)c1noc(Cc2ccc3ncc(Cl)cc3c2)n1 [Example 7, N-((6-amino-2,4-dimethylpyridin-3-yl)methyl)-5-((3-chloroquinolin-6-yl)methyl)-1,2,4-oxadiazole-3-carboxamide] has an AUC ([1]; rat, read-out: AUC) of 1000 to 10000 ng·h/mL, an EC50 (human Plasma Kallikrein [2]; [4]) of less than 100 nM and an IC50 (human Plasma Kallikrein [3]) of less than 100 nM.

In the case of Cc1cc(N)nc(C)c1CNC(=O)c1nc(Cc2ccc3ncc(Cl)cc3c2)n2ccccc12 [Example 9, N-((6-amino-2,4-dimethylpyridin-3-yl)methyl)-3-((3-chloroquinolin-6-yl)methyl)imidazo[1,5-a]pyridine-1-carboxamide], the AUC ([1]; rat, read-out: AUC) is reported as 100 to 1000 ng·h/mL, the EC50 (human Plasma Kallikrein [2]; [4]) is reported as less than 100 nM and the IC50 (human Plasma Kallikrein [3]) is reported as less than 100 nM.

With Cc1cc(N)nc(C)c1CNC(=O)c1cn(Cc2ccc3ncc(Cl)cc3c2)nn1 [Example 10, N-((6-amino-2,4-dimethylpyridin-3-yl)methyl)-1-((3-chloroquinolin-6-yl)methyl)-1H-1,2,3-triazole-4-carboxamide] the AUC ([1]; rat, read-out: AUC) was 1000 to 10000 ng·h/mL, the EC50 (human Plasma Kallikrein [2]; [4]) was less than 100 nM and the IC50 (human Plasma Kallikrein [3]) was less than 100 nM.

Molecule Cc1cc(N)nc(C)c1CNC(=O)c1cn(Cc2ccc3ncc(Cl)cc3c2)c2ncccc12 [Example 12, N-((6-amino-2,4-dimethylpyridin-3-yl)methyl)-1-((3-chloroquinolin-6-yl)methyl)-1H-pyrrolo[2,3-b]pyridine-3-carboxamide] has an AUC ([1]; rat, read-out: AUC) of 100 to 1000 ng·h/mL, an EC50 (human Plasma Kallikrein [2]) of less than 100 nM and an IC50 (human Plasma Kallikrein [3]) of less than 100 nM.

In the case of Cc1cc(N)nc(C)c1CNC(=O)c1nn(Cc2ccc3ncc(Cl)cc3c2)c2ccccc12 [Example 13, N-((6-amino-2,4-dimethylpyridin-3-yl)methyl)-1-((3-chloroquinolin-6-yl)methyl)-1H-indazole-3-carboxamide], the AUC ([1]; rat, read-out: AUC) is reported as 100 to 1000 ng·h/mL, the EC50 (human Plasma Kallikrein [2]) is reported as less than 100 nM and the IC50 (human Plasma Kallikrein [3]) is reported as less than 100 nM.

For Cc1cc(N)nc(C)c1CNC(=O)c1cn(Cc2ccc3ncc(Cl)cc3c2)nc1C(F)(F)F [Example 15, N-((6-amino-2,4-dimethylpyridin-3-yl)methyl)-1-((3-chloroquinolin-6-yl)methyl)-3-(trifluoromethyl)-1H-pyrazole-4-carboxamide], the AUC ([1]; rat, read-out: AUC) was 1000 to 10000 ng·h/mL, the EC50 (human Plasma Kallikrein [2]; [4]) was less than 100 nM and the IC50 (human Plasma Kallikrein [3]) was less than 100 nM.

Cc1cc(N)nc(C)c1CNC(=O)c1cn(Cc2ccc3ncc(Cl)cc3c2)c2cnccc12 [Example 16, N-((6-amino-2,4-dimethylpyridin-3-yl)methyl)-1-((3-chloroquinolin-6-yl)methyl)-1H-pyrrolo[2,3-c]pyridine-3-carboxamide] gave an AUC ([1]; rat, read-out: AUC) of 100 to 1000 ng·h/mL, an EC50 (human Plasma Kallikrein [2]) of less than 100 nM and an IC50 (human Plasma Kallikrein [3]) of less than 100 nM.

Molecule Cc1cc(N)nc(C)c1CNC(=O)c1cn(Cc2ccc3ncc(Cl)cc3c2)nc1N [Example 17, 3-amino-N-((6-amino-2,4-dimethylpyridin-3-yl)methyl)-1-((3-chloroquinolin-6-yl)methyl)-1H-pyrazole-4-carboxamide] has an AUC ([1]; rat, read-out: AUC) of 100 to 1000 ng·h/mL, an EC50 (human Plasma Kallikrein [2]; [4]) of less than 100 nM and an IC50 (human Plasma Kallikrein [3]) of less than 100 nM.

With CC(=O)Nc1cn(Cc2ccc3ncc(Cl)cc3c2)nc1C(=O)NCc1c(C)cc(N)nc1C [Example 19, 4-acetamido-N-((6-amino-2,4-dimethylpyridin-3-yl)methyl)-1-((3-chloroquinolin-6-yl)methyl)-1H-pyrazole-3-carboxamide] the AUC ([1]; rat, read-out: AUC) was 100 to 1000 ng·h/mL, the EC50 (human Plasma Kallikrein [2]; [4]) was less than 100 nM and the IC50 (human Plasma Kallikrein [3]) was less than 100 nM.

Cc1cc(N)nc(C)c1CNC(=O)c1nc(N)n(Cc2ccc3ncc(Cl)cc3c2)n1 [Example 20, 5-amino-N-((6-amino-2,4-dimethylpyridin-3-yl)methyl)-1-((3-chloroquinolin-6-yl)methyl)-1H-1,2,4-triazole-3-carboxamide] showed an AUC ([1]; rat, read-out: AUC) of less than 100 ng·h/mL, an EC50 (human Plasma Kallikrein [2]; [4]) of less than 100 nM and an IC50 (human Plasma Kallikrein [3]) of less than 100 nM.

Molecule Cc1cc(N)nc(C)c1CNC(=O)c1cnn(Cc2ccc3ncc(Cl)cc3c2)n1 [Example 21, N-((6-amino-2,4-dimethylpyridin-3-yl)methyl)-2-((3-chloroquinolin-6-yl)methyl)-2H-1,2,3-triazole-4-carboxamide] has an AUC ([1]; rat, read-out: AUC) of 1000 to 10000 ng·h/mL, an EC50 (human Plasma Kallikrein [2]; [4]) of less than 100 nM and an IC50 (human Plasma Kallikrein [3]) of less than 100 nM.

Cc1cc(N)nc(C)c1CNC(=O)c1cnc(Cc2ccc3ncc(Cl)cc3c2)o1 [Example 114, N-((6-amino-2,4-dimethylpyridin-3-yl)methyl)-2-((3-chloroquinolin-6-yl)methyl)oxazole-5-carboxamide] showed an AUC ([1]; rat, read-out: AUC) of 1000 to 10000 ng·h/mL and an EC50 (human Plasma Kallikrein [2]; [4]) of less than 100 nM.

Work on Cc1nc(N)ccc1CNC(=O)c1cn(Cc2ccc3ncc(Cl)cc3c2)c2ccc(=O)[nH]c12 [Example 125, N-((6-amino-2-methylpyridin-3-yl)methyl)-1-((3-chloroquinolin-6-yl)methyl)-5-oxo-4,5-dihydro-1H-pyrrolo[3,2-b]pyridine-3-carboxamide] yielded an EC50 (human Plasma Kallikrein [2]; [4]) of less than 100 nM and an IC50 (human Plasma Kallikrein [3]) of less than 100 nM.

For Cc1cc(N)nc(C)c1CNC(=O)c1cn(Cc2ccc3ncc(Cl)cc3c2)c2ccc(=O)[nH]c12 [Example 126, N-((6-amino-2,4-dimethylpyridin-3-yl)methyl)-1-((3-chloroquinolin-6-yl)methyl)-5-oxo-4,5-dihydro-1H-pyrrolo[3,2-b]pyridine-3-carboxamide], the EC50 (human Plasma Kallikrein [2]; [4]) was less than 100 nM and the IC50 (human Plasma Kallikrein [3]) was less than 100 nM.

From patent US10301284B2, “Therapeutic inhibitory compounds” (LifeSci Pharmaceuticals, Inc., priority 2016, dated 2019)
